Five sequences from PMC2816223, “Designed Coiled-Coil Peptides Inhibit the Type Three Secretion System of Enteropathogenic Escherichia coli” (PLoS ONE, 2010) can be followed below.

Ends that are not written are not given here.

Data set [1] deals with TTSS-mediated lysis of sheep RBC by EPEC E2348/69. To be noted: for inhibition of TTSS-mediated RBC lysis caused by E2348/69: peptide 0.56 mg/ml, bacteria preincubated with peptide 1 h, then 5% sheep RBC 3 h at 37°C, released hemoglobin OD 543 nm, relative to EPEC alone (100%), triplicate. How it is done: Twelve-well plates containing peptides and bacteria were incubated for 1 h to allow their interaction. A 5% suspension of RBC was then added, plates were incubated for another 3 h, and supernatants were monitored for released hemoglobin.
K12 means the hemolysis caused by the E. coli non-pathogenic strain. […] Each assay was done by triplicate.
The plates were incubated for 1 h under a 5% CO2 atmosphere to allow the interaction between peptides and bacteria. In turn, red blood cells (RBCs) were separated by centrifugation from fresh defibrinated sheep blood, which was obtained by jugular vein punction, washed three times with 10 mM PBS (pH 7.4) and resuspended at 5% in PBS. Then, 2 ml of the 5% suspension of RBC in PBS was added to the cultures in the plates and incubated for 3 h at 37°C under a 5% CO2 atmosphere. The suspension was removed from the plates and centrifuged at 12,000×g for 1 min. Supernatants were monitored for the presence of released hemoglobin by measuring the OD at 543 nm.

Data set [2] concerns EPEC E2348/69 adhering to HEp-2 cells. Nature of the data set: Fluorescent actin staining (FAS), A/E lesion / pedestal formation in HEp-2 cells. The class given is cell-based, enteropathogenic E. coli (EPEC) E2348/69. To be noted: peptide 0.56 mg/ml preincubated 1 h with EPEC, MOI 7, 2 h infection, 100 cells examined; EPEC without peptides 80%. The text has this:
Since CoilA, CoilB and CoilD were able to inhibit the hemolysis caused by EPEC, which could involve translocator proteins at cell membrane level, we decided to explore whether peptides were also able to block effector proteins delivery and thus prevent the formation of A/E lesions in epithelial cells. Thus, peptides interfering in actin polymerization beneath E2348/69 strain adhering to HEp-2 cells were visualized by FAS (fluorescent actin staining). As expected, EPEC bacteria were able to induce actin polymerization for pedestal formation in almost all the cells (Fig. 2A), the A/E lesions were not seen in uninfected cells (Fig. 2B). CoilA or CoilB preincubation with EPEC caused a decrease in pedestal formation in epithelial cells, showing different effectiveness (Fig. 2C and Fig. 2D).
Figure 2 Coiled-coil peptides inhibit A/E lesion formation caused by EPEC. HEp-2 cells were incubated with EPEC E2348/69 either with or without coiled-coil peptides. […] Incubation of HEp-2 cells with the wild type EPEC E2348/69 strain without peptides (EPEC WT); preincubated with CoilA (EPEC+CoilA), or CoilB (EPEC+CoilB) peptide and uninfected cells. The corresponding percentage of HEp-2 cells carrying pedestals, obtained by examining 100 cells, is shown in panel E. EPEC pH represents a mock control to rule out the biological influence of alkaline pH used to dissolve peptides; PBS at alkaline pH was used in volumes identical to those in which peptides were added to HEp-2 cells.
HEp-2 cells (5×10^4) were seeded in eight well chamber slides (NUNC, Lab-Tek, USA) and incubated at 37°C under a 5% CO2 atmosphere up to 70–90% confluence. Overnight LB culture of the EPEC E2348/69 strain was diluted 1∶20 into 3 ml of DMEM and cultured for 1 h. CoilA, CoilB or CoilD peptides were then added to the culture at a concentration of 0.56 mg/ml and allowed to interact with the bacteria for 1 h at 37°C under a 5% CO2 atmosphere. […] The cells were observed under fluorescence microscopy with a confocal laser microscope (Leica TC SP2).

For data set [3], the system named is EspA and Tir associated to HEp-2 cells infected with EPEC E2348/69. Nature of the data set: Western blot of EPEC-secreted proteins associated to HEp-2 cells. The class given is cell-based, enteropathogenic E. coli (EPEC) E2348/69. Particulars: HEp-2 cells treated 2 h with EPEC preincubated with peptide, washed, lysed. The procedure: To further determine the effect of CoilA and CoilB on EspA polymerization and Tir translocation were also examined by Western blotting. For that, HEp-2 cells were treated for 2 h with either EPEC alone or preincubated with each of the peptides and exhaustively washed. Cell extracts were prepared and the contents of EspA and Tir (Fig. 4) analyzed by Western blot using specific antibodies. […] The effective amount of EspA and Tir associated per cell may be even higher in non-treated (without peptides) cell cultures because it could be underestimated as some HEp-2 cells are detached from the surface upon infection. The pH buffering solution used to dilute CoilA and CoilB peptides had no effect and the results were similar to the positive control (Fig. 4).
Figure 4 CoilA and CoilB peptides block EspA polymerization and Tir translocation. Cell monolayers were infected with bacteria pretreated with peptides, washed, and lysed for Western blot detection of EspA and Tir proteins with specific rabbit antisera. pH represents a mock control to rule out the biological influence of alkaline pH used to dissolve peptides; PBS at alkaline pH was used in a volume identical to those in which peptides were added to HEp-2 cells.
(§1) HEp-2 monolayers were inoculated with bacteria pretreated with CoilA or CoilB peptides as described for fluorescent actin staining. After infection, the supernatant was removed from the plates and serial dilutions were cultured overnight at 37°C on LB agar plates to determine the viability of bacteria. In turn, the monolayers were resuspended in 40 µl of lysis buffer (1% Triton X-100) and protease inhibitor mix (Complete™ protease inhibitors, Roche). This material was subjected to Western blotting as mentioned above.
For orientation: In western blotting, separated proteins are transferred to a membrane and probed.

Data set [4] concerns EPEC adherence to HEp-2 cells. Put plainly: Non-adherent bacteria in supernatant of infected HEp-2 cells, HEp-2 detaching. The class given is cell-based, enteropathogenic E. coli (EPEC) E2348/69. To be noted: data not shown; for non-adherent bacteria in the supernatant of HEp-2 cells vs EPEC without peptides: EPEC preincubated with peptide; for HEp-2 detaching activity (cytopathic effect) by EPEC: bacteria preincubated with peptide. How it is done:
(§2) For that, HEp-2 cells were treated with EPEC preincubated either with or without CoilA or CoilB, and EspA and Tir were then visualized using specific antibodies and confocal microscopy.
as §1
In general terms: Damage to the host cells serves as the signal in cytopathic effect assays.

Data set [5] relates to EspA filaments on EPEC E2348/69. Put plainly: Immunogold labeling and TEM of EspA filaments. Particulars: EPEC incubated 4 h with peptide 0.56 mg/ml, fifty filaments, average with standard deviation, EPEC alone 700±150 nm. The class given is cell-based, enteropathogenic E. coli (EPEC) E2348/69. The procedure:
Since coil peptides are able to inhibit the TTSS by blocking EspA polymerization, we expected a decrement in EspA filaments on the bacterial cell surface upon incubation with coil peptides.
Figure 6 CoilA peptide blocks the formation of EspA filaments. Immunogold EM of EspA filaments on EPEC cultures incubated either with or without CoilA peptide. After incubation of bacterial samples with specific rabbit anti-EspA serum, the samples were observed by TEM. EPEC alone, without peptides (A, C) and EPEC incubated with CoilA (B, D). Bars, 200 nm (A, B), or 100 nm (C, D). Yellow box frames show EspA filaments.
EPEC E2348/69 strain was grown in LB overnight at 37°C without shaking and diluted 1∶100 into DMEM with 0.56 mg/ml of either CoilA or CoilB, in 24-well plates. The plates were incubated for 4 h under a 5% CO2 atmosphere. A 50 µl droplet of bacterial culture was applied to nickel EM grids (mesh 200) coated with 0.25% Formvar resin (Structure Probe, Inc., SPI supplies, PA, USA) for 2 min. Cells were immediately fixed face down for 15 min with 0.1% buffered glutaraldehyde in PBS (pH 7.3). The grids were washed by transfer across 6 drops of PBS and blocked in PBS containing 0.2% bovine serum albumin for 30 min at room temperature. […] Fifty EspA filaments were identified and the size was measured the length is given as an average with a standard deviation.

Data set [6] relates to EspA, EspB, EspD and Tir secretion by EPEC E2348/69. Put plainly: In vitro TTSS protein secretion, Western blot of culture supernatants and bacterial lysates. The class given is cell-based, enteropathogenic E. coli (EPEC) E2348/69. Particulars: EPEC incubated 4 h in DMEM with peptide 0.56 mg/ml; for secretion of EspD, Western blot: protein detected in pellet of lysed bacteria. How it is done: EPEC E2348/69 bacterial cultures were incubated in the presence of CoilA or CoilB peptides and concentrated supernatants and bacterial extracts were analyzed by Western blotting using specific antisera directed to EspA, EspB, EspD or Tir. The same amount of cell monolayer was loaded in each lane. pH represents a mock control to rule out the biological influence of alkaline pH used to dissolve peptides. PBS at alkaline pH was used in volumes identical to those in which peptides were added to cultures.
In order to determine the effect of syntethic peptides in the production and excretion of TTSS-proteins by EPEC, cellular and supernatants culture extracts of peptide-treated bacteria were subjected to western blot analysis with specific antisera. The E2348/69 strain grown overnight at 37°C in LB was diluted 1∶100 into 2 ml of DMEM containing CoilA or CoilB peptides at a concentration of 0.56 mg/ml, respectively, and cultured for another 4 h in the presence of 5% CO2. After collecting by centrifugation, bacteria were suspended in 2X SDS sample buffer and boiled for 5 min. The proteins present in culture supernatants were precipitated by the addition of trichloroacetic acid at 20% (wt/vol) and incubated overnight at 4°C. The protein precipitates were then collected by centrifugation at 20,000×g for 25 min, washed twice with 200 µl of ice-cold acetone and resuspended in 20 µl Tris-HCl 10 mM pH 8.8. Whole-cell extracts and culture supernatants were then analyzed by Western blotting using polyclonal rabbit antibodies against EspA, EspB, EspD and Tir recombinant proteins as described by Vilte et al. Primary antibodies were detected with horseradish peroxidase-conjugated goat anti-rabbit IgG (Sigma Chemical Co., St. Louis, MO) diluted 1∶10,000.

In data set [7] the test system is EspA polymerization and Tir translocation by EPEC E2348/69. Nature of the data set: Immunofluorescence of EspA and Tir on infected HEp-2 cells (confocal microscopy). The class given is cell-based, enteropathogenic E. coli (EPEC) E2348/69. To be noted: bacteria preincubated with peptide 0.56 mg/ml. How it is done:
as §2

Data set [8] is described as follows: Solubilization of peptides in PBS pH 10.0 / precipitation. The class given is physicochemical. The procedure:
CoilA, CoilB, CoilC, CoilD and PepTir peptides were synthesized commercially (Genbiotech, Buenos Aires). Peptides were solubilized with PBS (pH 10.0). […] EPEC E2348/69 [42] was kindly provided by Marta Rivas, ANLIS-Instituto Nacional de Microbiología Dr. Carlos G. Malbrán, Buenos Aires. […] Bacteria were grown in Luria Bertani broth (LB) or Dulbecco's modified Eagle medium (DMEM) lacking phenol red (Gibco-BRL), without antibiotics and bovine fetal serum at 37°C without shaking.

Regarding KVNIDENGNAI [PepTir], the “inhibition of TTSS-mediated RBC lysis caused by E2348/69” value (from here on “inhibition”) in data set [1] was “did not show inhibitory activity”.
Regarding LSDSVPELLNSTDLV [CoilC], in data set [1], the “inhibition” value is recorded as “did not show inhibitory activity”.
On to LTTTVNNSQLEIQQM [CoilA], for which the “HEp-2 cells showing pedestals” value in data set [2] came to 20%. In data set [3], the “Tir in the cells, Western blot” value is “significant decrease”; the “amount of EspA associated to the cells and attached bacteria (incl. EspA polymers), Western blot” value is recorded as “drastically decreased”. Moreover, in data set [4], the “non-adherent bacteria in the supernatant of HEp-2 cells vs EPEC without peptides” value amounted to 7 fold and the “HEp-2 detaching activity (cytopathic effect) by EPEC” value is reported as “absent”. Also, the EspA filament length entry in data set [5] is “about 250±50 nm”. Also, the “hemolysis at reduced peptide concentration” value in data set [1] (peptide 0.15 mg/ml, preincubated with EPEC E2348/69, sheep RBC, relative to EPEC alone) was 50%. The “inhibition” value in data set [1] is on record as “around 95%”. In data set [6], the “secretion of EspB to the culture supernatant, Western blot” value is reported as “not clearly observed”; the “secretion of Tir in vitro, Western blot” value was “lightly decreased”; the “secretion of EspD, Western blot” value is recorded as “affected”. Also, in data set [7] (anti-EspA sera), the “secreted EspA (immunofluorescence)” value is “drastic decrease”. Moreover, the “translocated Tir (immunofluorescence)” value in data set [7] (anti-Tir sera) is reported as “drastic decrease”.
Regarding MSNTLNLLTSARSDM [CoilB], in data set [2], the “HEp-2 cells showing pedestals” value is on record as 2%. In addition, in data set [3], the “Tir in the cells, Western blot” value is “significant decrease”; the “amount of EspA associated to the cells and attached bacteria (incl. EspA polymers), Western blot” value is “drastically decreased”. In addition, in data set [4], the “non-adherent bacteria in the supernatant of HEp-2 cells vs EPEC without peptides” value was 40 fold and the “HEp-2 detaching activity (cytopathic effect) by EPEC” value was “absent”. For the same sequence, the “tendency to precipitate / aggregation” value in data set [8] (observed in preparation for electron micrographs) was “tendency to precipitate forming clumps”. For the same sequence, in data set [8] (peptides solubilized with PBS pH 10.0), the “solubility in PBS (pH 10.0)” value is on record as “not completely soluble”. In addition, the “inhibition” value in data set [1] is listed as “around 95%”. For the same sequence, in data set [6], the “secretion of EspB to the culture supernatant, Western blot” value is recorded as “blocked the secretion of EspB”; the “secretion of Tir in vitro, Western blot” value is recorded as “lightly decreased”; the “secretion of EspD, Western blot” value is reported as “affected”.
For the sequence VNDPEKMLELQFAVQ [CoilD], in data set [2], the “HEp-2 cells showing pedestals” value is reported as “unable to inhibit pedestal formation”. For the same sequence, in data set [1], the “inhibition” value was 25%.
